Values quoted from earlier work, collected in publication PMC3726336, “Product inhibition of cellulases studied with ^14C-labeled cellulose substrates” (Biotechnology for Biofuels, 2013).

Target: T1, TrCel7B (Trichoderma reesei, UniProt P07981)
T1 construct: TrCel7B, TrCel5A, and TrCel12A were purified from the culture filtrate of Tr QM 9414; made in house; host or cells: Trichoderma reesei QM 9414 culture filtrate (native producer)
Parameters: method as in PMID 15129433
Conditions: 3H-reduced amorphous cellulose substrate, read-out: apparent Ki value; cited from earlier work

T1 sequence (P07981 23-459): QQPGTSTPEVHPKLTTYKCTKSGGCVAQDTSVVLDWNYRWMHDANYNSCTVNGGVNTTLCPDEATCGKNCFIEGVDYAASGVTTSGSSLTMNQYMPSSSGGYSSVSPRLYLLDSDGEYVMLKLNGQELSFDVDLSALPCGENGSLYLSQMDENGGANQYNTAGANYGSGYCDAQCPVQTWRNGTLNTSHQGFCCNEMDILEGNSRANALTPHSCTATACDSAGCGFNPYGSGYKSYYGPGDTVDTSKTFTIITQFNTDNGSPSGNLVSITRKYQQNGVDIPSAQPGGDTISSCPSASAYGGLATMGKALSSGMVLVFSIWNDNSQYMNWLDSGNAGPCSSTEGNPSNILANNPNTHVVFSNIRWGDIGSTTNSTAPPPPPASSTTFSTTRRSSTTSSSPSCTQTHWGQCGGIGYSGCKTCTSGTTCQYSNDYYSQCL

O=C[C@H](O)[C@@H](O)[C@H](O[C@@H]1O[C@H](CO)[C@@H](O)[C@H](O)[C@H]1O)[C@H](O)CO [cellobiose, Cellobiose]
Ki: 11 ± 3 mM
